Test results published in patent US12441718B2, “Selective angiotensin II compounds” (VICORE PHARMA AB, priority 2021, dated 2025).
Like-named read-outs stand apart in the source and are kept apart here.

Key:
[1] = Metabolic stability in pooled human liver microsomes; assay type: in vitro ADME; details: human, pooled human liver microsomes, pooled human liver microsomes 0.5 mg/mL, 1 μM test compound, 37° C., * rows = mean of two runs
In short: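 Pooled human liver microsomes (0.5 mg/mL in PBS) preincubated ±1 mM NADPH at 37° C; test compound added at 10 min to 1 μM final. Samples at 0, 5, 15 and 60 min quenched in acetonitrile, parent quantified by LC-MS/MS against a standard curve (terfenadine internal standard). Initial metabolic rate calculated with and without NADPH.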

[2] = molecular target: T1, human recombinant AT2 receptor (Homo sapiens, UniProt P50052); experiment: Binding to AT2 receptor, radiometric scintillation assay (Eurofins ITEM26); details: ligand 125I CGP 42112A, * rows = mean of runs; for Ki: seven-point dose-response curve; for IC50: test compounds at 1, 10, 100 and 1000 nM, read-out: AT2 GraFit IC50
T1 construct: purchased Eurofins ITEM26 (protocol number)
T1 sequence (P50052 1-363): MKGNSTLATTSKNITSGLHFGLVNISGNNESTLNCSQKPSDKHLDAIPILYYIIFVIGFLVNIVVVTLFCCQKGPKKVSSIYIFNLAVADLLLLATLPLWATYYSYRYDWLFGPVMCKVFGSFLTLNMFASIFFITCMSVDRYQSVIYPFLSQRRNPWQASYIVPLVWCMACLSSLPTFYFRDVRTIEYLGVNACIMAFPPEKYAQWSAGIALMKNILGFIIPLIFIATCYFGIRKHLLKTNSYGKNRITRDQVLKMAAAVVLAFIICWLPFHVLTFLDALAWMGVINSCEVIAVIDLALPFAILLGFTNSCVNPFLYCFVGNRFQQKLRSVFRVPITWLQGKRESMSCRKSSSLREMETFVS

[3] = molecular target: T2, human recombinant AT1 receptor (Homo sapiens, UniProt P30556); experiment: Binding to AT1 receptor, radiometric scintillation assay (Eurofins ITEM24); details: test compounds at 1 and 10 μM, ligand 125I(sar1,Ile8)-AT-II; * rows = mean of runs
T2 construct: purchased Eurofins ITEM24 (protocol number)
T2 sequence (P30556 1-359): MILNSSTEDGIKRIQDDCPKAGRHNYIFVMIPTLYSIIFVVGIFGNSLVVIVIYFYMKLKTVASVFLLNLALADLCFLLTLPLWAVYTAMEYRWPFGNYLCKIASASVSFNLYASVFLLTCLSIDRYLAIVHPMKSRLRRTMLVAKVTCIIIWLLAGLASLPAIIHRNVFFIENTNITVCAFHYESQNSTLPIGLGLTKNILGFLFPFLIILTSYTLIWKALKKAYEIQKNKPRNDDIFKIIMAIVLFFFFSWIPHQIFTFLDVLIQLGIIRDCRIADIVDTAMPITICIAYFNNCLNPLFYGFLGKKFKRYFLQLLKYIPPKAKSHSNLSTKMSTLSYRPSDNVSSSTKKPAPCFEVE

CYP1A2 = molecular target: T3, CYP1A2 (Homo sapiens, UniProt P05177); experiment: in vitro; assay type: in vitro ADME; details: human, microsomes, human liver microsomes, substrate phenacetin, read-out: CYP1A2 Inh %
T3 construct: isoform-specific substrates incubated with human liver microsomes; tissue Eurofins ITEMG232 (protocol number); host or cells: human liver microsomes
Description: The following substrates were used; CYP1A phenacetin, CYP2B36 bupropion, CYP2C8 paclitaxel and amodiaquine, CYP2C9 diclofenac, CYP2C19 omeprazole, CYP2D6 dextromethorphan, CYP3A midazolam and testosterone.
At the end of the incubation, the formation of metabolite was monitored by HPLC-MS/MS as the peak area response.

CYP2B6 = molecular target: T4, CYP2B6 (Homo sapiens, UniProt P20813); experiment: CYP inhibition in human liver microsomes (Eurofins ITEMG232); assay type: in vitro ADME; details: probe bupropion, substrate bupropion, read-out: CYP2B6 Inh %
T4 construct: isoform-specific substrates incubated with human liver microsomes; tissue Eurofins ITEMG232 (protocol number); host or cells: human liver microsomes
T4 sequence (P20813 1-491): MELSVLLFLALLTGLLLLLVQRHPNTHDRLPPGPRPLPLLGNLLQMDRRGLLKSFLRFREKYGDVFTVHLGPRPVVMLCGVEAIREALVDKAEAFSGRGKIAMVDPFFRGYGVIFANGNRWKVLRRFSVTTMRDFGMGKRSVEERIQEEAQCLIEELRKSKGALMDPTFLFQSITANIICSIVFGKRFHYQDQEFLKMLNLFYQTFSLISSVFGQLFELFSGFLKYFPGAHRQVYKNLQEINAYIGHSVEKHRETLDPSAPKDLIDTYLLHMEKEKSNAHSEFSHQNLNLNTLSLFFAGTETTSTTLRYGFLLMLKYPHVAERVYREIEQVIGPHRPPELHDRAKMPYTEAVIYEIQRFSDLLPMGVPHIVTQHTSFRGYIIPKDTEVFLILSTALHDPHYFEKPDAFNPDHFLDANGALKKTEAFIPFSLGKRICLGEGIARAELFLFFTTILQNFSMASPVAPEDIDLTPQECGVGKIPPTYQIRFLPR

CYP2C19 = molecular target: T5, CYP2C19 (Homo sapiens, UniProt P33261); experiment: as above; assay type: in vitro ADME; details: human, probe omeprazole, substrate omeprazole, read-out: CYP2C19 Inh %
T5 construct: isoform-specific substrates incubated with human liver microsomes; tissue Eurofins ITEMG232 (protocol number); host or cells: human liver microsomes

CYP2C8 = molecular target: T6, CYP2C8 (Homo sapiens, UniProt P10632); experiment: as above; assay type: in vitro ADME; details: human, probe paclitaxel and amodiaquine, substrate paclitaxel and amodiaquine, read-out: CYP2C8 Inh %
T6 construct: isoform-specific substrates incubated with human liver microsomes; tissue Eurofins ITEMG232 (protocol number); host or cells: human liver microsomes
T6 sequence (P10632 1-490): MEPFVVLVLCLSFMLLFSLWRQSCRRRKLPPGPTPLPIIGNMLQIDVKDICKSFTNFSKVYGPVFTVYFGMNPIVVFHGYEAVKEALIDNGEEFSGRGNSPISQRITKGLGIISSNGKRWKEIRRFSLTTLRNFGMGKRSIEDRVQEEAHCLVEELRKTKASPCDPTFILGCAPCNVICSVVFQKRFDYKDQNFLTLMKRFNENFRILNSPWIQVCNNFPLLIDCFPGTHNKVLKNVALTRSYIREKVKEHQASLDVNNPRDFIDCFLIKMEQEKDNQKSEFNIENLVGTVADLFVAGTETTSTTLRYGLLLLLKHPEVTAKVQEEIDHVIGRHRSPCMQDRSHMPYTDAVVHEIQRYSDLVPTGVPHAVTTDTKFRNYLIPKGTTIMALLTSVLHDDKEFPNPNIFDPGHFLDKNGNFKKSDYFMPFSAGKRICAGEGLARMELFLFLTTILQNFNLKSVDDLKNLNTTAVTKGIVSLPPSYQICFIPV

CYP2D6 = molecular target: T7, CYP2D6 (Homo sapiens, UniProt P10635); experiment: as above; assay type: in vitro ADME; details: probe dextromethorphan, substrate dextromethorphan, read-out: CYP2D6 Inh %
T7 construct: isoform-specific substrates incubated with human liver microsomes; tissue Eurofins ITEMG232 (protocol number); host or cells: human liver microsomes

CYP3A4&5 = experiment: in vitro; details: human, human liver microsomes, probe testosterone;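 note: Read-out is the metabolite generated from the probe substrate, quantified as HPLC-MS/MS peak area once incubation ends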
CYP2C9 = CYP2C9 (Homo sapiens, UniProt P11712); experiment: CYP inhibition in human liver microsomes (Eurofins ITEMG232); assay type: in vitro ADME; parameters: isoform-specific substrates incubated with human liver microsomes; tissue Eurofins ITEMG232 (protocol number); host or cells: human liver microsomes; details: human, probe diclofenac, substrate diclofenac, read-out: CYP2C9 Inh %
CYP3A4 = CYP3A4 (Homo sapiens, UniProt P08684); experiment: CYP inhibition in human liver microsomes (Eurofins ITEMG232), midazolam substrate; assay type: in vitro ADME; parameters: isoform-specific substrates incubated with human liver microsomes; tissue Eurofins ITEMG232 (protocol number); host or cells: human liver microsomes; details: human, probe midazolam, read-out: CYP3A4 midazolam Inh %
[4] = with 1 mM NADPH, read-out: T1/2, + NaDPH
[5] = without NADPH, read-out: T1/2, no NaDPH

Sequence of CYP2C9 (P11712 whole entry, canonical isoform): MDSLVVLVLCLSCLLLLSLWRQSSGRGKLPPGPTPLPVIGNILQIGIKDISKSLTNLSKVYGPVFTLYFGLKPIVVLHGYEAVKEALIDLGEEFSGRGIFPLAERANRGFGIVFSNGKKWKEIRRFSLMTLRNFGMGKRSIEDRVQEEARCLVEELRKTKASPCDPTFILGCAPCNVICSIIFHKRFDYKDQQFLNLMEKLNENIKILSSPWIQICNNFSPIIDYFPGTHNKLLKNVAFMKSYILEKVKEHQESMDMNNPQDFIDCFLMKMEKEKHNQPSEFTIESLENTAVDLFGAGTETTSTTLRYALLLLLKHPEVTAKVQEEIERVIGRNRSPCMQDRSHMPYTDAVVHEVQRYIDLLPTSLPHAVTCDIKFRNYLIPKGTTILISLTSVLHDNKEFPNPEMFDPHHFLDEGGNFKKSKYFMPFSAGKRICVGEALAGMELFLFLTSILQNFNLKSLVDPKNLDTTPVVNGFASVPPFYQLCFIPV
T7 sequence (P10635 whole entry, canonical isoform): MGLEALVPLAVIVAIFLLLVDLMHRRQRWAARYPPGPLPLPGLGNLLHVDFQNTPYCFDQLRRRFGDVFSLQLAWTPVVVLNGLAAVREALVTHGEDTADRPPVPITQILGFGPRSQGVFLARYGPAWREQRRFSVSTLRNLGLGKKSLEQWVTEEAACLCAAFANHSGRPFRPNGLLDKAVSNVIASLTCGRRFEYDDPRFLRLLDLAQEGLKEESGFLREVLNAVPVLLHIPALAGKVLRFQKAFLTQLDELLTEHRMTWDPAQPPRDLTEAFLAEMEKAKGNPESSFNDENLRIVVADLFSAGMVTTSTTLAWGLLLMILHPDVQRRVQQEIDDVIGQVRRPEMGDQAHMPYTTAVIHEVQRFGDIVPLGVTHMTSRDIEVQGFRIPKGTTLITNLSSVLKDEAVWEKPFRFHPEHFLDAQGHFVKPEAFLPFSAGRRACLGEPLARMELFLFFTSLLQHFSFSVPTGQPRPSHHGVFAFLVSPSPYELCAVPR
Sequence of CYP3A4 (P08684 whole entry, canonical isoform): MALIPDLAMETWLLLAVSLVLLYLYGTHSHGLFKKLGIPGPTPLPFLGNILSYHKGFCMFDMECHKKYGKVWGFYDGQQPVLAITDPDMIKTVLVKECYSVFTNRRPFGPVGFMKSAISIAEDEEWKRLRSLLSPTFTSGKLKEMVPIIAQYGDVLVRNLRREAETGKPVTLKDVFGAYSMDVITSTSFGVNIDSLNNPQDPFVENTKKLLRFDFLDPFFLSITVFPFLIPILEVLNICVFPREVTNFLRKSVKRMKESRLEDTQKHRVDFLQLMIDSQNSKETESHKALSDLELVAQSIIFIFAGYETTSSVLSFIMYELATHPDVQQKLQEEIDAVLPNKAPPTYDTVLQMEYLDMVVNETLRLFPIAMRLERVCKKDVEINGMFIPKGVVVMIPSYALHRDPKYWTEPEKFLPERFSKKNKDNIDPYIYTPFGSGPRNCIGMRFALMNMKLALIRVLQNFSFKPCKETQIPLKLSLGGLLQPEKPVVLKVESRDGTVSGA
T5 sequence (P33261 whole entry, canonical isoform): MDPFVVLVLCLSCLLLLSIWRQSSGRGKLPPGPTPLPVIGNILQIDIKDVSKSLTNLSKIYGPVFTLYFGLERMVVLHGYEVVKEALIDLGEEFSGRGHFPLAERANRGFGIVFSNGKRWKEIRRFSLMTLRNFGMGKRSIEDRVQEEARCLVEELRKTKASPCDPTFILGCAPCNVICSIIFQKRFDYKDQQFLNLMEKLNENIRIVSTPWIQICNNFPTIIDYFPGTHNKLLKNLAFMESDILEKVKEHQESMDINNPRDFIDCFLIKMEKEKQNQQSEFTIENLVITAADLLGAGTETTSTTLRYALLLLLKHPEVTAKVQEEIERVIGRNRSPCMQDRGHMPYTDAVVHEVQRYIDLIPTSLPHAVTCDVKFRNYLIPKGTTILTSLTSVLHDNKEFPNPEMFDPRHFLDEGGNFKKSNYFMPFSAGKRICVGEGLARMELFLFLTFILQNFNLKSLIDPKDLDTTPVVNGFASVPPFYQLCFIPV
T3 sequence (P05177 whole entry, canonical isoform): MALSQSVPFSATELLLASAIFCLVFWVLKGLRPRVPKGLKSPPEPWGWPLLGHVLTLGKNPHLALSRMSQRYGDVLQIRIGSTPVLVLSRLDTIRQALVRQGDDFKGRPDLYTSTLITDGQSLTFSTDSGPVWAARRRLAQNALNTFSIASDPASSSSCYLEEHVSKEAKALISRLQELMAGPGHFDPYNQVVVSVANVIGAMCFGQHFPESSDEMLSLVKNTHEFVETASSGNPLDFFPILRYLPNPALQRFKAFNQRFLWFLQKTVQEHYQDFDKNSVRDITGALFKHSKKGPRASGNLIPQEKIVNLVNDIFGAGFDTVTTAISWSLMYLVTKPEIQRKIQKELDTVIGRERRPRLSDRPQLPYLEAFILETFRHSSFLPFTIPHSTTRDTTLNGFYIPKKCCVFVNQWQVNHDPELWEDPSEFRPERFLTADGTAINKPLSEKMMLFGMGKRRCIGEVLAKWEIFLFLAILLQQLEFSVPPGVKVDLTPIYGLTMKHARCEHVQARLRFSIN

SMILES | half-life at 1 μM [1, 4] | half-life at 1 μM [1, 5] | Ki [2] | IC50 [2] | IC50 [3] | inhibition at 10 µM (CYP1A2) | inhibition at 10 µM (CYP2B6) | inhibition at 10 µM (CYP2C19) | inhibition at 10 µM (CYP2C8) | inhibition at 10 µM (CYP2D6) | inhibition at 10 µM (CYP3A4&5) | inhibition at 10 µM (CYP2C9) | inhibition at 10 µM (CYP3A4)
CC(C)Cc1ccc(S(=O)(=O)Nc2ncc(C(F)(F)F)cn2)c(-c2ccc(Cn3ccnc3C(C)(C)C)cc2)c1 [Example 4, 4′-((2-(tert-Butyl)-1H-imidazol-1-yl)methyl)-5-isobutyl-N-(5-(trifluoromethyl)pyrimidin-2-yl)-[1,1′-biphenyl]-2-sulfonamide] | > 1 h | > 1 h | 6.18 nM | 12.4 nM | 6200 nM | 19.5% | 36.2% | 62.3% | 94.3% | 21.5% | 1.5% | 68.3% | 33.8%
Cc1nc(NS(=O)(=O)c2ccc(CC(C)C)cc2-c2ccc(Cn3ccnc3C(C)(C)C)c(F)c2)oc1C [Example 24, 4′-((2-(tert-Butyl)-1H-imidazol-1-yl)methyl)-N-(4,5-dimethyloxazol-2-yl)-3′-fluoro-5-isobutyl-[1,1′-biphenyl]-2-sulfonamide] | 0.55 h | > 1 h | 0.72 nM | 1.45 nM | 1100 nM | -19.4% | 26.9% | 57% | 59.6% | 1.1% | 47.5% | 52.7% | 36%

Now from value to compound:

half-life at 1 μM [1, 4] | half-life at 1 μM [1, 5] | Ki [2] | IC50 [2] | IC50 [3] | inhibition at 10 µM (CYP1A2) | inhibition at 10 µM (CYP2B6) | inhibition at 10 µM (CYP2C19) | inhibition at 10 µM (CYP2C8) | inhibition at 10 µM (CYP2D6) | inhibition at 10 µM (CYP3A4&5) | inhibition at 10 µM (CYP2C9) | inhibition at 10 µM (CYP3A4) | SMILES
0.967 h | > 1 h | 2.08 nM | 4.17 nM | 1700 nM | 16.7% | 35.8% | 48.9% | 89.6% | 18.4% | -41.8% | 82.3% | 14.6% | CC(C)Cc1ccc(S(=O)(=O)Nc2ncc(C#N)cn2)c(-c2ccc(Cn3ccnc3C(C)(C)C)c(F)c2)c1 [Example 12, 4′-((2-(tert-Butyl)-1H-imidazol-1-yl)methyl)-N-(5-cyanopyrimidin-2-yl)-3′-fluoro-5-isobutyl-[1,1′-biphenyl]-2-sulfonamide]
> 1 h | > 1 h | 2.4 nM | 4.79 nM | 14300 nM | -33.8% | -0.5% | 36.9% | 89.2% | 17.2% | 26.8% | 4% | 49.8% | CC(C)Cc1ccc(S(=O)(=O)Nc2ncc(F)cn2)c(-c2ccc(Cn3ccnc3C(C)(C)C)cc2)c1 [Example 3, 4′-((2-(tert-Butyl)-1H-imidazol-1-yl)methyl)-N-(5-fluoropyrimidin-2-yl)-5-isobutyl-[1,1′-biphenyl]-2-sulfonamide]
0.133 h | > 1 h | 71 nM | 142 nM | 58700 nM | -1.1% | 20.5% | 85.7% | 58.1% | 4% | 97% | 94.7% | 98.2% | COc1ncncc1NS(=O)(=O)c1ccc(CC(C)C)cc1-c1ccc(Cn2ccnc2C(C)(C)C)c(F)c1 [Example 22, 4′-((2-(tert-Butyl)-1H-imidazol-1-yl)methyl)-3′-fluoro-5-isobutyl-N-(4-methoxy-pyrimidin-5-yl)-[1,1′-biphenyl]-2-sulfonamide]
1 h | > 1 h | 0.5 nM | 1.01 nM | 125 nM | 60.2% | 38.4% | 95.7% | 62.4% | 50.9% | 92.2% | 98% | 94% | CC(C)Cc1ccc(S(=O)(=O)Nc2ncccn2)c(-c2ccc(Cn3ccnc3)c(F)c2)c1 [Example 30, 4′-((1H-Imidazol-1-yl)methyl)-3′-fluoro-5-isobutyl-N-(pyrimidin-2-yl)-[1,1′-biphenyl]-2-sulfonamide]
